From ChEMBL document CHEMBL1142441, “Stereochemical studies on the novel monoamine oxidase B substrates (1R,6S)- and (1S,6R)-3-methyl-6-phenyl-3-aza-bicyclo[4.1.0]heptane” (Bioorg Med Chem, 2008)

Biological target: T1, Amine oxidase [flavin-containing] B (Homo sapiens, UniProt P27338)
T1 sequence (P27338 whole entry): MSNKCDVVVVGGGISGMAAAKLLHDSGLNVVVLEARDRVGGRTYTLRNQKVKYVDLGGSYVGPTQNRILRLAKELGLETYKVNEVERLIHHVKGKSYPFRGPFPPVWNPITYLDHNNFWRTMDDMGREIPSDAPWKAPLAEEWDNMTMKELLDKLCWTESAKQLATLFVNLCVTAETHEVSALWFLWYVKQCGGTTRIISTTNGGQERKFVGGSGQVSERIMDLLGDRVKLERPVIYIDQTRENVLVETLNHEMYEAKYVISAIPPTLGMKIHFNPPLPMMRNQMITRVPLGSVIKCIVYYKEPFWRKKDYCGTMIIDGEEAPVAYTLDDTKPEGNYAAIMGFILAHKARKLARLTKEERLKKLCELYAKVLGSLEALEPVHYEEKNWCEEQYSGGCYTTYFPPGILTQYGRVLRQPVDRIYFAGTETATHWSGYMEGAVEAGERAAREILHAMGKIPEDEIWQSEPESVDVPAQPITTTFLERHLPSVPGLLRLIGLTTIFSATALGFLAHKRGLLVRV
Experiment: Activity of 50 nM human recombinant MAOB after 30 mins
Settings: 0.5 h

Structure (SMILES)	Vmax
CN1CC[C@@]2(c3ccccc3)C[C@H]2C1	135 nmol
CN1CC[C@]2(c3ccccc3)C[C@@H]2C1	135 nmol
